Where two headings read alike, the source gives them in different places.
Experiments:
T7 polymerase = T7 polymerase (Escherichia phage T7, UniProt P00573); settings: J. Mol. Biol. (2007) 370, 256-268; read-out: Kd of T7 polymerase for the first initiating guanosine; cited from earlier work
RIG-I = RIG-I activation in HEK-Lucia RIG-I reporter cells; format: cell-based
Experimental: (§1) LNPs are prepared and administered in vivo to mice as in Example 11(A,B). Blood is collected at appropriate time points, typically at intervals between 1-48 hours post-dose and terminal end point, and processed to serum or plasma per techniques well known in the art. Serum or plasma cytokine and chemokine levels are measured using V-PLEX cytokine and chemokine detection kits. Cytokine and chemokine levels are compared to animals treated with buffer alone as well as pre-dose sampling of the treatment animals. In some instances, the immune stimulation of capped mRNA is assessed after in vitro transfection to reporter cell lines such as HEK-Lucia RIG-I cell reporter model, which produces luciferase signal in the presence of IFN-stimulated response elements such as uncapped mRNA. This cell model is cultured and transfected as described in Example 7, and luciferase activity is measured using a luciferase activity kit and plate reader. It is known in the art that uncapped mRNA produces a RIG-I-dependent IFN immune response, and capped mRNA lessens this immune stimulation. […] The results of this example were compared using mRNA made with a commercially available 5′ end initiator, 1002a, as a reference.
RIG-I overexpressed reporter HEK293 cells were utilized to evaluate cap specific immune response. mRNA with different cap analogs were transfected to the reporter cells. This cell model is cultured and transfected as described in Example 7. The response was measured at 24 hours after transfection. RIG-I is a cytosolic pattern recognition receptor that is responsible for the type-1 interferon response and can respond to 5′ triphosphate of RNA.

T7 RNA polymerase [1] = target: T1, T7 RNA polymerase (Escherichia phage T7, UniProt P00573); settings: for mRNA production yield: ABE mRNA MA079, 4 mM analog, 90 minutes, UV absorption; for production yield for ABE encoding mRNA: ABE mRNA MA004, IVT with T7 polymerase, 37° C., about 1-4 hours, UV spectrometry
[2] = test system: TNF-α, IFN-γ, IFN-α, IFN-β, MIP-1B, IP-10, IL-10, IL-6; assay: In vivo immunogenicity: serum cytokine and chemokine levels in mice; parameters: species or system mouse; settings: LNPs 1 mg/kg and 3 mg/kg
Experimental: as §1
In vivo immunogenicity was quantified as described in Example 12. Mice were treated with LNPs at a level of 1 mg/kg and 3 mg/kg, and serum was collected 3 hours and 24 hours post-injection. […] For comparison, cytokine measurements were also completed for mRNA comprising commercially available 5′ end initiator 1002a.

cells = assay: Cas9 protein expression in cells (antibody detection); format: cell-based; settings: 6 hours post transfection; low and high doses
Experimental: Protein expression is directly assessed via antibody detection of the Cas9 protein. The measured signal is compared to that of a recombinant Cas9 of known concentration to derive the Y-axis value. […] This is consistent at both low and high doses at 6 hours post transfection. At 24 hours after transfection, the potency difference between the analogs was less pronounced, but the trend generally remained consistent.

T7 RNA polymerase [3] = target: T1, T7 RNA polymerase; format: biochemical; settings: for mRNA full-length purity: ABE mRNA MA004, capillary gel electrophoresis; for amount of full-length mRNA produced: initiator-to-NTP ratio ranging from 1:1 down to 1:5
[4] = test system: Primary human hepatocytes; assay: Luciferase expression in primary human hepatocytes; format: cell-based; settings: 6 hours after transfection, 106.3 ng of mRNA dose
Source text: The harvested cell lysate was subjected to conditions to derive a quantifiable fluorescent signal. This signal was then compared to analog 1002a to determine how structural differences may be related to the changes in expression. Primary human hepatocytes were subjected to two different doses of mRNA encoding for the protein luciferase made using the indicated test analogs. A single RNA molecule may be interpreted by protein synthesis machinery multiple times, so an analog that may increase the frequency of interpretation may be desirable as a 5′ initiator. This frequency of interpretation, or translation efficiency, may be determined by measuring the amount of protein produced in a population of cells exposed to a known amount of RNA at a given point following that exposure. The duration of expression may also be assessed to determine how an analog may sustain the observed expression, as the RNA molecule is eventually decayed within the cell thereby destroying its protein-encoding capacity. […] Similar protein expression profiles was also observed at 24 hours post transfection (FIG. 17b).

T7 RNA polymerase [5] = target: T1, T7 RNA polymerase
HeLa lysate = assay: Translation of luciferase mRNA in HeLa lysate in vitro translation kit; format: biochemical; settings: luminescence
Experimental: HeLa cells are cultured in RPMI with 10% FBS at 37° C. under 5% CO2 atmosphere. Cells are plated into an appropriately sized well plate per manufacturer's recommended seeding conditions. After overnight incubation, cells are checked for monolayer formation and then transfected using a transfection agent such as MessengerMAX. Solution A: the desired amount of luciferase mRNA is diluted in OptiMEM and mixed with Solution B: MessengerMAX in OptiMEM. After mixing solutions A and B, the mixture is incubated at room temperature for 20 minutes, and then added dropwise to each well of cells. The cells are then incubated at 37° C. for 12-72 hours to allow for expression of mRNA into protein. Cells are harvested and prepared for measuring luciferase protein levels per Promega luciferase assay system protocol. […] For example, luciferase encoding mRNA with 5′ end region motif, 1007a, was added to a commercially available HeLa lysate in vitro translation kit to produce luciferase protein. Luciferase protein activity as measured by luminescent light production in the presence of a luciferin substrate, was measured with a luminescence-detecting plate reader. Relative light units measured per this assay are proportional to the amount of luciferase protein translated from mRNA. […]

NHP ANGPTL3 = assay: In vivo ABE base editing in NHP liver (LNP, NGS); settings: LNP with sgRNA targeting NHP ANGPTL3 and ABE mRNA, FIG. 8
Experimental: Lipid nanoparticles (LNPs) are generated by microfluidic mixing using the Precision Nanosystems NanoAssemblr system according to the manufacturer's protocol, with some optimization for individual payloads. The resulting LNPs are filtered using 0.2-micron filters and stored at 4° C. or frozen at −80° C.
LNPs used in these studies were prepared with sgRNA targeting ANGPTL3 and ABE encoding mRNAs with 5′ end region motifs as described in Example 11A, comprising chemically synthesized sgRNAs targeting the NHP ANGPTL3 genes and ABE8.8 mRNA in a 1:1 weight ratio. LNPs were administered to NHP (n=3 per group) by one single intravenous infusion in a total volume of 6 mL/kg. Livers were collected 16 days post dose for NGS measurements of editing efficiency. […]
Paired-end reads are analyzed with the CRISPResso2 pipeline (Clement, K. et al., Nat. Biotech. 2019, 37, 224-226). Briefly, low-quality reads are filtered out, adapter sequences are trimmed from the reads, and the paired-end reads are merged and aligned to the amplicon sequence. The editing percentage is calculated as the number of reads supporting […], over the total number of aligned reads. For ABE, the editing percentage is calculated as the number of reads supporting […], over the total number of aligned reads. […]

[6] = serum 24 hours post-injection, baseline = about pre-injection level

T1 sequence (P00573 whole entry): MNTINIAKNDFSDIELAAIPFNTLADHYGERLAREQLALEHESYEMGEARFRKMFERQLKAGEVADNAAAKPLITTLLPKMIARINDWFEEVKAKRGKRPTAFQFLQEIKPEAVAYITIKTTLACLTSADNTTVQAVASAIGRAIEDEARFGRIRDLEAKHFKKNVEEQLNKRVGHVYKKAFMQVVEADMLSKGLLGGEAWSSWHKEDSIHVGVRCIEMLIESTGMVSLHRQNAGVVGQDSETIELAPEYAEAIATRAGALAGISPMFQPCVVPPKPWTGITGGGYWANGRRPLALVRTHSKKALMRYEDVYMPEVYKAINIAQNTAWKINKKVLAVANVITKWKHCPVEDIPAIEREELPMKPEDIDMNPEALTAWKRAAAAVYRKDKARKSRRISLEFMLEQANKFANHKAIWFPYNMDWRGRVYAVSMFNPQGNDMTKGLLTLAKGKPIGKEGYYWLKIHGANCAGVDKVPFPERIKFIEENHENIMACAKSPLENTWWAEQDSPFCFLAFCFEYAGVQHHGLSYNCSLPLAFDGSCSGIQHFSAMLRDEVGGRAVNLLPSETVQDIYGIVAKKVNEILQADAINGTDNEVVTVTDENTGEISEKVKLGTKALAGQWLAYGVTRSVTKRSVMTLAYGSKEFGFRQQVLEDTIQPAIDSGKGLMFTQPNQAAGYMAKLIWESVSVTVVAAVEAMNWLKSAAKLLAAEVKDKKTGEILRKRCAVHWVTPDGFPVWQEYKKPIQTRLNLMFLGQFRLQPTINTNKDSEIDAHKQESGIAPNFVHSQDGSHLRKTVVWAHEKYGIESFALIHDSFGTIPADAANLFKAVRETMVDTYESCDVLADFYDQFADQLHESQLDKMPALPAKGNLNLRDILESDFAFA
Sequence of T7 polymerase (P00573 whole entry): as above

Nc1nc2c(ncn2[C@@H]2O[C@H](COP(=O)(O)OP(=O)(O)OP(=O)(O)O)[C@@H](O)[C@H]2O)c(=O)[nH]1 [GTP]
Kd (T7 polymerase): 2000 µM

COC1C(O[P@@]([O-])(=S)OCC2OC(n3cnc4c(=O)[nH]c(N)nc43)C(O)C2O)C(COP(=O)(O)OP(=O)(O)OP(=O)(O)OCC2OC(n3c[n+](C)c4c(=O)[nH]c(N)nc43)C(O)C2O)OC1n1cnc2c(N)ncnc21 (stereo partly drawn) [1007a_D1, m^7G(ppp) Am(ps)G]
RIG-I response (RIG-I; RIG-I overexpressed reporter HEK293 cells, 24 hours after transfection, FIG. 14): lowest RIG-I response | mRNA production yield (T7 RNA polymerase [1]): slightly lower | cytokines (TNF-α, IFN-γ, IFN-α, IFN-β, MIP-1B, IP-10, IL-10, IL-6) ([2]; serum 3 hours post-injection): detectable | cytokines (TNF-α, IFN-γ, IFN-α, IFN-β, MIP-1B, IP-10, IL-10, IL-6) [2, 6]: returned to baseline | Cas9 expression (cells): largely similar among most analogs except 1007a_D1 and 1007a | mRNA full-length purity (FLP) (T7 RNA polymerase [3]; ABE mRNA MA079, 4 mM analog, 90 minutes, electrophoretic separation): 79.4%

COC1C(O[P@]([O-])(=S)OCC2OC(n3cnc4c(=O)[nH]c(N)nc43)C(O)C2O)C(COP(=O)(O)OP(=O)(O)OP(=O)(O)OCC2OC(n3c[n+](C)c4c(=O)[nH]c(N)nc43)C(O)C2O)OC1n1cnc2c(N)ncnc21 (stereo partly drawn) [1007a_D2, m^7G(ppp) Am(ps)G]
relative luciferase expression [4]: a little increased protein expression | mRNA production yield (T7 RNA polymerase [1]): ~4 mg/mL | cytokines (TNF-α, IFN-γ, IFN-α, IFN-β, MIP-1B, IP-10, IL-10, IL-6) ([2]; serum 3 hours post-injection): detectable | cytokines (TNF-α, IFN-γ, IFN-α, IFN-β, MIP-1B, IP-10, IL-10, IL-6) [2, 6]: returned to baseline

COC1C(OP([O-])(=S)OCC2OC(n3cnc4c(=O)[nH]c(N)nc43)C(O)C2O)C(COP(=O)(O)OP(=O)(O)OP(=O)(O)OCC2OC(n3c[n+](C)c4c(=O)[nH]c(N)nc43)C(O)C2O)OC1n1cnc2c(N)ncnc21 (stereo not drawn) [1007a, m^7G(ppp) Am(ps)G]
RIG-I activity as compared to uncapped mRNA (RIG-I; HEK-Lucia RIG-I cell reporter model, FIG. 9): reduced RIG-I activity | RIG-I activation as a result of the chemical modifications to the cap structure (RIG-I; HEK-Lucia RIG-I cell reporter model, reference 1002a): did not appear to increase RIG-I activation | production yield for ABE encoding mRNA (T7 RNA polymerase [1]): about 3.3 mg per 1 ml of IVT reaction | mRNA production yield (T7 RNA polymerase [1]): ~4 mg/mL | capping efficiency (T7 RNA polymerase [5]; initiator-to-NTP ratio ranging from 1:1 down to 1:2.5): > 90% | cytokines (TNF-α, IFN-γ, IFN-α, IFN-β, MIP-1B, IP-10, IL-10, IL-6) ([2]; serum 3 hours post-injection): detectable | cytokines (TNF-α, IFN-γ, IFN-α, IFN-β, MIP-1B, IP-10, IL-10, IL-6) [2, 6]: returned to baseline | Cas9 expression (cells): largely similar among most analogs except 1007a_D1 and 1007a | mRNA full-length purity (T7 RNA polymerase [3]): about 88% | amount of full-length mRNA produced (T7 RNA polymerase [3]): did not reduce | luciferase activity relative to mRNA with initiator 1002a (HeLa lysate): around 2 × | base editing efficacy compared to mRNAs with 1002a 5′ end region motif (NHP ANGPTL3): lower or similar base editing efficacy

COC1C(OP(=O)(O)OCC2OC(n3cnc4c(=O)[nH]c(N)nc43)C(O)C2O)C(COP(=O)(O)OP(=O)([O-])OP(=O)(O)OCC2OC(n3c[n+](Cc4ccc(Cl)cc4)c4c(=O)[nH]c(N)nc43)C(O)C2O)OC1n1cnc2c(N)ncnc21 (stereo not drawn) [compound 5231, 4-Cl-Bn7G(ppp) Am(p)G]
mRNA production yield (T7 RNA polymerase [1]): slightly lower | cytokines (TNF-α, IFN-γ, IFN-α, IFN-β, MIP-1B, IP-10, IL-10, IL-6) ([2]; serum 3 hours post-injection): detectable | cytokines (TNF-α, IFN-γ, IFN-α, IFN-β, MIP-1B, IP-10, IL-10, IL-6) [2, 6]: returned to baseline

COC1C(OP(=O)(O)OCC2OC(n3cnc4c(=O)[nH]c(N)nc43)C(O)C2O)C(COP(=O)(O)OP(=O)([S-])OP(=O)(O)OCC2OC(n3c[n+](C)c4c(=O)[nH]c(N)nc43)C(O)C2O)OC1n1cnc2c(N)ncnc21 (stereo not drawn) [1107a, m^7G(ppsp) Am(p)G]
production yield for ABE encoding mRNA (T7 RNA polymerase [1]): about 3.3 mg per 1 ml of IVT reaction | capping efficiency (T7 RNA polymerase [5]; initiator-to-NTP ratio ranging from 1:1 down to 1:1.67): > 90% | mRNA full-length purity (T7 RNA polymerase [3]): about 86% | amount of full-length mRNA produced (T7 RNA polymerase [3]): did not reduce

Reference: patent US20250084409A1, “COMPOSITIONS AND METHODS FOR CAPPING RNAS” (Verve Therapeutics, Inc., priority 2022, published 2025)
